#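 Exposure lasted 48 hours, with cells grown in 96-well plates and compounds tested at five concentrations. GI50: concentration for 50% inhibition of growth. Definition used: TGI = concentration required for complete inhibition of growth.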
# Tests used:
# Assay in all cases: NCI tumour cell line growth inhibition, 48 h
# A498 renal = tested on: A498 renal
# HCC-2998 colon = tested on: HCC-2998 colon
# NCI-H226 lung = tested on: NCI-H226 lung
# HOP-18 NSCLC = tested on: HOP-18 NSCLC
# SF-295 CNS = tested on: SF-295 CNS
# MCF7 breast = tested on: MCF7 breast
# OVCAR-5 ovarian = tested on: OVCAR-5 ovarian
# UACC-62 melanoma = tested on: UACC-62 melanoma
# KM12 colon = tested on: KM12 colon
# DMS 114 small cell lung = tested on: DMS 114 small cell lung
# NCI/ADR-RES ovarian = tested on: NCI/ADR-RES ovarian
# SNB-78 CNS = tested on: SNB-78 CNS
# HCT-116 colon = tested on: HCT-116 colon
# HOP-62 NSCLC = tested on: HOP-62 NSCLC
# COLO 205 colon = tested on: COLO 205 colon
# NCI-H522 lung = tested on: NCI-H522 lung
# XF 498 CNS = tested on: XF 498 CNS
# U251 CNS = tested on: U251 CNS
# P388 leukemia = tested on: P388 leukemia
# HCT-15 colon = tested on: HCT-15 colon
# MALME-3M melanoma = tested on: MALME-3M melanoma
# OVCAR-3 ovarian = tested on: OVCAR-3 ovarian
# SF-539 CNS = tested on: SF-539 CNS
# KM20L2 colon = tested on: KM20L2 colon
# SN12C renal = tested on: SN12C renal
# SW-620 colon = tested on: SW-620 colon
# HOP-92 NSCLC = tested on: HOP-92 NSCLC
# UACC-257 melanoma = tested on: UACC-257 melanoma
# IGROV1 ovarian = tested on: IGROV1 ovarian
# OVCAR-8 ovarian = tested on: OVCAR-8 ovarian
# HL-60(TB) leukemia = tested on: HL-60(TB) leukemia
# M19-MEL melanoma = tested on: M19-MEL melanoma
# RPMI-8226 leukemia = tested on: RPMI-8226 leukemia
# SK-MEL-5 melanoma = tested on: SK-MEL-5 melanoma
# EKVX NSCLC = tested on: EKVX NSCLC
# DMS 273 small cell lung = tested on: DMS 273 small cell lung
# DLD-1 colon = tested on: DLD-1 colon
# SF-268 CNS = tested on: SF-268 CNS
# CAKI-1 renal = tested on: CAKI-1 renal
# K-562 leukemia = tested on: K-562 leukemia
# SK-OV-3 ovarian = tested on: SK-OV-3 ovarian
# SNB-75 CNS = tested on: SNB-75 CNS
# NCI-H23 lung = tested on: NCI-H23 lung
# SN12K1 renal = tested on: SN12K1 renal
# LOX IMVI melanoma = tested on: LOX IMVI melanoma
# SNB-19 CNS = tested on: SNB-19 CNS
# P388/ADR leukemia = tested on: P388/ADR leukemia
# UO-31 renal = tested on: UO-31 renal
# SK-MEL-28 melanoma = tested on: SK-MEL-28 melanoma
# RXF 393 renal = tested on: RXF 393 renal
# NCI-H460 lung = tested on: NCI-H460 lung
# SK-MEL-2 melanoma = tested on: SK-MEL-2 melanoma
# MOLT-4 leukemia = tested on: MOLT-4 leukemia
# A549 NSCLC = tested on: A549 NSCLC
# CCRF-CEM leukemia = tested on: CCRF-CEM leukemia
# HT29 colon = tested on: HT29 colon
# OVCAR-4 ovarian = tested on: OVCAR-4 ovarian
compound,measurement,setting,value
O=[Se]([O-])c1ccccc1.O=[Se]([O-])c1ccccc1.[OH3+].[OH3+].[Pt+2],GI50,A498 renal,16.5 µM
same,TGI,A498 renal,> 48.8 µM
same,GI50,HCC-2998 colon,16.6 µM
same,TGI,HCC-2998 colon,55.9 µM
same,GI50,NCI-H226 lung,12.9 µM
same,TGI,NCI-H226 lung,52.5 µM
same,GI50,HOP-18 NSCLC,15.1 µM
same,TGI,HOP-18 NSCLC,60.6 µM
same,GI50,SF-295 CNS,3.42 µM
same,TGI,SF-295 CNS,16.9 µM
same,GI50,MCF7 breast,6.42 µM
same,TGI,MCF7 breast,37.2 µM
same,GI50,OVCAR-5 ovarian,15.5 µM
same,TGI,OVCAR-5 ovarian,39.1 µM
same,GI50,UACC-62 melanoma,13.1 µM
same,TGI,UACC-62 melanoma,55.6 µM
same,GI50,KM12 colon,3.41 µM
same,TGI,KM12 colon,25 µM
same,GI50,DMS 114 small cell lung,3.73 µM
same,TGI,DMS 114 small cell lung,20.8 µM
same,GI50,NCI/ADR-RES ovarian,2800 nM
same,TGI,NCI/ADR-RES ovarian,9.89 µM
same,GI50,SNB-78 CNS,15.3 µM
same,TGI,SNB-78 CNS,37.5 µM
same,GI50,HCT-116 colon,3.14 µM
same,TGI,HCT-116 colon,9.5 µM
same,GI50,HOP-62 NSCLC,18.5 µM
same,TGI,HOP-62 NSCLC,31.2 µM
same,GI50,COLO 205 colon,6.78 µM
same,TGI,COLO 205 colon,18.4 µM
same,GI50,NCI-H522 lung,2510 nM
same,TGI,NCI-H522 lung,13.4 µM
same,GI50,XF 498 CNS,7.72 µM
same,TGI,XF 498 CNS,26.2 µM
same,GI50,U251 CNS,9.51 µM
same,TGI,U251 CNS,17.2 µM
same,GI50,P388 leukemia,1840 nM
same,TGI,P388 leukemia,5.67 µM
same,GI50,HCT-15 colon,6.02 µM
same,TGI,HCT-15 colon,28.6 µM
same,GI50,MALME-3M melanoma,16.5 µM
same,TGI,MALME-3M melanoma,54.2 µM
same,GI50,OVCAR-3 ovarian,7.91 µM
same,TGI,OVCAR-3 ovarian,32.8 µM
same,GI50,SF-539 CNS,10.6 µM
same,TGI,SF-539 CNS,44.2 µM
same,GI50,KM20L2 colon,8.88 µM
same,TGI,KM20L2 colon,35.1 µM
same,GI50,SN12C renal,9.71 µM
same,TGI,SN12C renal,53.3 µM
same,GI50,SW-620 colon,5.24 µM
same,TGI,SW-620 colon,25.2 µM
same,GI50,HOP-92 NSCLC,14.4 µM
same,TGI,HOP-92 NSCLC,40.7 µM
same,GI50,UACC-257 melanoma,2960 nM
same,TGI,UACC-257 melanoma,11.8 µM
same,GI50,IGROV1 ovarian,9.02 µM
same,TGI,IGROV1 ovarian,> 42 µM
same,GI50,OVCAR-8 ovarian,3.03 µM
same,TGI,OVCAR-8 ovarian,20.2 µM
same,GI50,HL-60(TB) leukemia,2190 nM
same,TGI,HL-60(TB) leukemia,5.66 µM
same,GI50,M19-MEL melanoma,8.43 µM
same,TGI,M19-MEL melanoma,44.8 µM
same,GI50,RPMI-8226 leukemia,5.41 µM
same,TGI,RPMI-8226 leukemia,39.7 µM
same,GI50,SK-MEL-5 melanoma,13.9 µM
same,TGI,SK-MEL-5 melanoma,30.5 µM
same,GI50,EKVX NSCLC,6.34 µM
same,TGI,EKVX NSCLC,26 µM
same,GI50,DMS 273 small cell lung,14.6 µM
same,TGI,DMS 273 small cell lung,36 µM
same,GI50,DLD-1 colon,4.85 µM
same,TGI,DLD-1 colon,24.3 µM
same,GI50,SF-268 CNS,6.37 µM
same,TGI,SF-268 CNS,18.2 µM
same,GI50,CAKI-1 renal,11 µM
same,TGI,CAKI-1 renal,> 26.4 µM
same,GI50,K-562 leukemia,10 µM
same,TGI,K-562 leukemia,34.6 µM
same,GI50,SK-OV-3 ovarian,56.6 µM
same,TGI,SK-OV-3 ovarian,> 100 µM
same,GI50,SNB-75 CNS,6.17 µM
same,TGI,SNB-75 CNS,33.8 µM
same,GI50,NCI-H23 lung,7.01 µM
same,TGI,NCI-H23 lung,88.4 µM
same,GI50,SN12K1 renal,4.5 µM
same,TGI,SN12K1 renal,15 µM
same,GI50,LOX IMVI melanoma,3.42 µM
same,TGI,LOX IMVI melanoma,19.2 µM
same,GI50,SNB-19 CNS,10.9 µM
same,TGI,SNB-19 CNS,33.7 µM
same,GI50,P388/ADR leukemia,2120 nM
same,TGI,P388/ADR leukemia,11.8 µM
same,GI50,UO-31 renal,5.78 µM
same,TGI,UO-31 renal,46.2 µM
same,GI50,SK-MEL-28 melanoma,10.8 µM
same,TGI,SK-MEL-28 melanoma,36.1 µM
same,GI50,RXF 393 renal,22.7 µM
same,TGI,RXF 393 renal,40.6 µM
same,GI50,NCI-H460 lung,18.6 µM
same,TGI,NCI-H460 lung,> 86.1 µM
same,GI50,SK-MEL-2 melanoma,12.7 µM
same,TGI,SK-MEL-2 melanoma,35.5 µM
same,GI50,MOLT-4 leukemia,3.62 µM
same,TGI,MOLT-4 leukemia,> 42.4 µM
same,GI50,A549 NSCLC,12.2 µM
same,TGI,A549 NSCLC,58.8 µM
same,GI50,CCRF-CEM leukemia,3.15 µM
same,TGI,CCRF-CEM leukemia,> 35.9 µM
same,GI50,HT29 colon,3.09 µM
same,TGI,HT29 colon,14.6 µM
same,GI50,OVCAR-4 ovarian,2150 nM
same,TGI,OVCAR-4 ovarian,10.3 µM

# — PubChem BioAssay (NCI)
